Source: the supplement of paper PMC10307832

How the values were obtained:
Assay in all cases: relative viability (nuclei count vs DMSO), 5 days (fraction); higher = more cells survive
Zebularine + Alpelisib = compound: O=c1ncccn1[C@@H]1O[C@H](CO)[C@@H](O)[C@H]1O [Zebularine] + Cc1nc(NC(=O)N2CCC[C@H]2C(N)=O)sc1-c1ccnc(C(C)(C)C(F)(F)F)c1 [Alpelisib] (partner 2 µM)
In short: (§1)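 Lung cancer cell lines were seeded in 1536-well plates and dosed by pin tool the next day, with either a single drug or a fixed anchor-drug dose combined with five library-drug doses (not always all listed) spaced in √10 steps. Five days later, one step fixed the cells and stained their nuclei (final 0.05% Triton X-100, 1% formaldehyde, 1 ug/ml Hoechst), and nuclei were counted on 4× images. Relative viability is the nuclei count in treated wells divided by the count in vehicle wells, and each value is the median of duplicate plates.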

BI-D1870 + OSI-027 = compound: CC(C)CCN1c2nc(Nc3cc(F)c(O)c(F)c3)ncc2N(C)C(=O)C1C [BI-D1870] + COc1cccc2cc(-c3nc([C@H]4CC[C@H](C(=O)O)CC4)n4ncnc(N)c34)[nH]c12 [OSI-027] (partner 0.5 µM)
In short: as §1

BI-D1870 + Tozasertib = compound: CC(C)CCN1c2nc(Nc3cc(F)c(O)c(F)c3)ncc2N(C)C(=O)C1C [BI-D1870] + Cc1cc(Nc2cc(N3CCN(C)CC3)nc(Sc3ccc(NC(=O)C4CC4)cc3)n2)n[nH]1 [Tozasertib] (partner 0.1 µM)
In short: as §1

BI-D1870 + AZD7762 = compound: CC(C)CCN1c2nc(Nc3cc(F)c(O)c(F)c3)ncc2N(C)C(=O)C1C [BI-D1870] + NC(=O)Nc1cc(-c2cccc(F)c2)sc1C(=O)N[C@H]1CCCNC1 [AZD7762] (partner 0.2 µM)
In short: as §1

Cell Line	relative viability (Zebularine + Alpelisib; first compound 1 µM)	relative viability (Zebularine + Alpelisib; first compound 3.162 µM)	relative viability (Zebularine + Alpelisib; first compound 10 µM)	relative viability (Zebularine + Alpelisib; first compound 31.62 µM)	relative viability (Zebularine + Alpelisib; first compound 100 µM)	relative viability (BI-D1870 + OSI-027; first compound 0.04 µM)	relative viability (BI-D1870 + OSI-027; first compound 0.1265 µM)	relative viability (BI-D1870 + OSI-027; first compound 0.4 µM)	relative viability (BI-D1870 + OSI-027; first compound 1.265 µM)	relative viability (BI-D1870 + OSI-027; first compound 4 µM)	relative viability (BI-D1870 + Tozasertib; first compound 0.04 µM)	relative viability (BI-D1870 + Tozasertib; first compound 0.1265 µM)	relative viability (BI-D1870 + Tozasertib; first compound 0.4 µM)	relative viability (BI-D1870 + Tozasertib; first compound 1.265 µM)	relative viability (BI-D1870 + Tozasertib; first compound 4 µM)	relative viability (BI-D1870 + AZD7762; first compound 0.04 µM)	relative viability (BI-D1870 + AZD7762; first compound 0.1265 µM)	relative viability (BI-D1870 + AZD7762; first compound 0.4 µM)	relative viability (BI-D1870 + AZD7762; first compound 1.265 µM)	relative viability (BI-D1870 + AZD7762; first compound 4 µM)
NCI-H1299	1.05	1.16	0.836	1.16	0.529	–	–	–	–	–	–	–	–	–	–	–	–	–	–	–
NCI-H1650	–	–	–	–	–	0.653	0.591	0.593	0.68	0.331	0.53	0.347	0.401	0.323	0.252	–	–	–	–	–
COR-L 105	1.24	0.952	0.807	0.96	1.1	0.769	0.682	0.619	0.808	0.754	0.416	0.319	0.343	0.341	0.33	–	–	–	–	–
ChaGo-K-1	–	–	–	–	–	0.652	0.55	0.547	0.559	0.538	0.224	0.203	0.201	0.236	0.22	0.956	0.81	0.89	0.911	0.834
NCI-H2228	0.782	0.615	0.632	0.693	0.374	0.659	0.533	0.654	0.515	0.257	0.226	0.205	0.163	0.164	0.134	–	–	–	–	–
SW 900	–	–	–	–	–	0.808	0.424	0.442	0.604	0.327	0.472	0.542	0.463	0.408	0.284	0.81	0.589	0.526	0.661	0.594
NCI-H661	0.653	0.498	0.333	0.737	0.603	0.765	0.622	0.652	0.706	0.467	0.355	0.337	0.336	0.354	0.381	–	–	–	–	–
NCI-H1563	0.932	0.888	0.927	0.955	0.909	0.79	0.814	0.673	0.801	0.709	–	–	–	–	–	–	–	–	–	–
A549	0.923	0.658	–	0.625	0.317	–	–	–	–	–	–	–	–	–	–	–	–	–	–	–
NCI-H2342	–	–	–	–	–	0.592	0.587	0.645	0.773	0.679	0.491	0.374	0.538	0.481	0.515	0.493	0.609	0.392	0.803	0.667
NCI-H1623	–	–	–	–	–	0.389	0.439	0.457	0.396	0.376	0.404	0.412	0.478	0.452	0.376	–	–	–	–	–
NCI-H522	–	–	–	–	–	0.872	0.66	0.655	0.654	0.649	0.559	0.648	0.583	0.505	0.533	0.84	0.845	0.851	0.935	0.911
IA-LM	0.768	0.584	0.494	1.13	0.996	–	–	–	–	–	–	–	–	–	–	–	–	–	–	–
EBC-1	0.899	0.832	0.711	1.02	0.857	–	–	–	–	–	–	–	–	–	–	–	–	–	–	–
